target: T1, AR (Homo sapiens, UniProt P10275); test: Degradation of AR in VCaP cells; format: cell-based; details: VCaP cells
T1 construct: Degradation of AR; Cellular potency; host or cells: VCaP cells
T1 sequence (P10275 1-920): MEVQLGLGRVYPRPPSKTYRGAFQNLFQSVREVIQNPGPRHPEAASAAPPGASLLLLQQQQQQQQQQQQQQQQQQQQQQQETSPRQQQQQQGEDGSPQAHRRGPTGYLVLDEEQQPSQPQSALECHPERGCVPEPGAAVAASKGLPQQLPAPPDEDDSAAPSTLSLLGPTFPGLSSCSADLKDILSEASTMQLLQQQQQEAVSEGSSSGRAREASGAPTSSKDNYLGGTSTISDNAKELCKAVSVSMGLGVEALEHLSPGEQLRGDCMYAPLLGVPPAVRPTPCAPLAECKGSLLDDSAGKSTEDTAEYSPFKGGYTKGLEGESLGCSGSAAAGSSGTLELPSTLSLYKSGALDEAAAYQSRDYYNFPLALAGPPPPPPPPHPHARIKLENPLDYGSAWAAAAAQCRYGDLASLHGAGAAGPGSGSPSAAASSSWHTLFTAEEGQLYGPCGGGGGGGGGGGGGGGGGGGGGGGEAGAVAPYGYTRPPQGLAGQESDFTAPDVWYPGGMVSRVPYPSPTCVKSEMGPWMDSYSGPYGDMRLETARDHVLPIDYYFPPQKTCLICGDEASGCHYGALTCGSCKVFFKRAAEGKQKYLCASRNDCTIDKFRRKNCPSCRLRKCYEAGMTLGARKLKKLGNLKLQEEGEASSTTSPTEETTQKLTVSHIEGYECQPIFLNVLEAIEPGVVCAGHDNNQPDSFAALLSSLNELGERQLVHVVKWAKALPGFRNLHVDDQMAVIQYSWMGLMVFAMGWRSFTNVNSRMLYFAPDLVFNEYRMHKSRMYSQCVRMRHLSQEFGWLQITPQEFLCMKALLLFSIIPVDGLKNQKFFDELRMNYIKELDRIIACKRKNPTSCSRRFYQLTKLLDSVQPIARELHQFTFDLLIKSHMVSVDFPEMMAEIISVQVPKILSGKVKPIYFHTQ
Method: (§1) Biological Assays. LNCaP and VCaP cells used were purchased from American Type Culture Collection (ATCC). LNCaP were grown in RPMI 1640 (Invitrogen) and VCaP cells were grown in DMEM with Glutamax (Invitrogen). All of the cells were supplemented with 10% fetal bovine serum (Invitrogen) at 37° C. in a humidified 5% CO2 incubator.

| SMILES | DC50 [µM] |
| --- | --- |
| C[C@H]1CC2(CCN(c3ccc(N4CCC(NC5CN(c6ccc7c(c6)C(=O)N(C6CCC(=O)NC6=O)C7=O)C5)CC4)cc3)CC2)CN1c1ccc(C#N)c(Cl)c1 (stereo partly shown) [compound 120] | < 0.001 |
| C[C@H]1CC2(CCN(c3ccc(N4CC(N(C)C5CN(c6ccc7c(c6)C(=O)N(C6CCC(=O)NC6=O)C7=O)C5)C4)cc3)CC2)CN1c1ccc(C#N)c(Cl)c1 (stereo partly shown) [compound 121] | < 0.1 |
| C[C@H]1CC2(CCN(c3ccc(N4CCC(N(C)C5CN(c6ccc7c(c6)C(=O)N(C6CCC(=O)NC6=O)C7=O)C5)CC4)cn3)CC2)CN1c1ccc(C#N)c(Cl)c1 (stereo partly shown) [compound 123] | < 0.001 |
| C[C@H]1CC2(CCN(c3ccc(N4CCC(N(C)C5CN(c6ccc7c(c6)C(=O)N(C6CCC(=O)NC6=O)C7=O)C5)CC4)nc3)CC2)CN1c1ccc(C#N)c(Cl)c1 (stereo partly shown) [compound 124] | < 0.01 |
| C[C@H]1CC2(CCN(c3ccc(N4CCC(N(C)C5CN(c6ccc7c(c6)C(=O)N(C6CCC(=O)NC6=O)C7=O)C5)CC4)nn3)CC2)CN1c1ccc(C#N)c(Cl)c1 (stereo partly shown) [compound 125] | < 0.01 |
| C[C@H]1CC2(CCN(c3ccc(OC4CCN(C5CN(c6cc7c(cc6F)C(=O)N(C6CCC(=O)NC6=O)C7=O)C5)CC4)cc3)CC2)CN1c1ccc(C#N)c(Cl)c1 (stereo partly shown) [compound 131] | < 0.001 |
| C[C@H]1CC2(CCN(c3ccc(OC4CCN(C5CN(c6cc7c(cc6F)C(=O)N(C6CCC(=O)NC6=O)C7=O)C5)CC4)cn3)CC2)CN1c1ccc(C#N)c(Cl)c1 (stereo partly shown) [compound 132] | < 0.001 |

same assay, conditions: VCaP, VCaP cells

| SMILES | Dmax [%] |
| --- | --- |
| C[C@H]1CC2(CCN(c3ccc(N4CCC(NC5CN(c6ccc7c(c6)C(=O)N(C6CCC(=O)NC6=O)C7=O)C5)CC4)cc3)CC2)CN1c1ccc(C#N)c(Cl)c1 (stereo partly shown) [compound 120] | > 90 |
| C[C@H]1CC2(CCN(c3ccc(N4CC(N(C)C5CN(c6ccc7c(c6)C(=O)N(C6CCC(=O)NC6=O)C7=O)C5)C4)cc3)CC2)CN1c1ccc(C#N)c(Cl)c1 (stereo partly shown) [compound 121] | 70 to 90 |
| C[C@H]1CC2(CCN(c3ccc(N4CCC(N(C)C5CN(c6ccc7c(c6)C(=O)N(C6CCC(=O)NC6=O)C7=O)C5)CC4)cn3)CC2)CN1c1ccc(C#N)c(Cl)c1 (stereo partly shown) [compound 123] | > 90 |
| C[C@H]1CC2(CCN(c3ccc(N4CCC(N(C)C5CN(c6ccc7c(c6)C(=O)N(C6CCC(=O)NC6=O)C7=O)C5)CC4)nc3)CC2)CN1c1ccc(C#N)c(Cl)c1 (stereo partly shown) [compound 124] | 70 to 90 |
| C[C@H]1CC2(CCN(c3ccc(N4CCC(N(C)C5CN(c6ccc7c(c6)C(=O)N(C6CCC(=O)NC6=O)C7=O)C5)CC4)nn3)CC2)CN1c1ccc(C#N)c(Cl)c1 (stereo partly shown) [compound 125] | > 90 |
| C[C@H]1CC2(CCN(c3ccc(OC4CCN(C5CN(c6cc7c(cc6F)C(=O)N(C6CCC(=O)NC6=O)C7=O)C5)CC4)cc3)CC2)CN1c1ccc(C#N)c(Cl)c1 (stereo partly shown) [compound 131] | > 90 |
| C[C@H]1CC2(CCN(c3ccc(OC4CCN(C5CN(c6cc7c(cc6F)C(=O)N(C6CCC(=O)NC6=O)C7=O)C5)CC4)cn3)CC2)CN1c1ccc(C#N)c(Cl)c1 (stereo partly shown) [compound 132] | > 90 |

system: VCaP cells; test: Cellular potency (IC50) in VCaP cells; format: cell-based; details: Homo sapiens, VCaP
Method: as §1

| SMILES | IC50 [µM] |
| --- | --- |
| C[C@H]1CC2(CCN(c3ccc(N4CCC(NC5CN(c6ccc7c(c6)C(=O)N(C6CCC(=O)NC6=O)C7=O)C5)CC4)cc3)CC2)CN1c1ccc(C#N)c(Cl)c1 (stereo partly shown) [compound 120] | < 0.01 |
| C[C@H]1CC2(CCN(c3ccc(N4CC(N(C)C5CN(c6ccc7c(c6)C(=O)N(C6CCC(=O)NC6=O)C7=O)C5)C4)cc3)CC2)CN1c1ccc(C#N)c(Cl)c1 (stereo partly shown) [compound 121] | < 0.1 |
| C[C@H]1CC2(CCN(c3ccc(N4CCC(N(C)C5CN(c6ccc7c(c6)C(=O)N(C6CCC(=O)NC6=O)C7=O)C5)CC4)cn3)CC2)CN1c1ccc(C#N)c(Cl)c1 (stereo partly shown) [compound 123] | < 0.01 |
| C[C@H]1CC2(CCN(c3ccc(N4CCC(N(C)C5CN(c6ccc7c(c6)C(=O)N(C6CCC(=O)NC6=O)C7=O)C5)CC4)nc3)CC2)CN1c1ccc(C#N)c(Cl)c1 (stereo partly shown) [compound 124] | < 0.1 |
| C[C@H]1CC2(CCN(c3ccc(N4CCC(N(C)C5CN(c6ccc7c(c6)C(=O)N(C6CCC(=O)NC6=O)C7=O)C5)CC4)nn3)CC2)CN1c1ccc(C#N)c(Cl)c1 (stereo partly shown) [compound 125] | < 0.01 |
| C[C@H]1CC2(CCN(c3ccc(OC4CCN(C5CN(c6cc7c(cc6F)C(=O)N(C6CCC(=O)NC6=O)C7=O)C5)CC4)cc3)CC2)CN1c1ccc(C#N)c(Cl)c1 (stereo partly shown) [compound 131] | < 0.01 |
| C[C@H]1CC2(CCN(c3ccc(OC4CCN(C5CN(c6cc7c(cc6F)C(=O)N(C6CCC(=O)NC6=O)C7=O)C5)CC4)cn3)CC2)CN1c1ccc(C#N)c(Cl)c1 (stereo partly shown) [compound 132] | < 0.01 |

system: LNCaP cells; test: Cellular potency (IC50) in LNCaP cells; format: cell-based; details: Homo sapiens, LNCaP
Method: as §1

| SMILES | IC50 [µM] |
| --- | --- |
| C[C@H]1CC2(CCN(c3ccc(N4CCC(NC5CN(c6ccc7c(c6)C(=O)N(C6CCC(=O)NC6=O)C7=O)C5)CC4)cc3)CC2)CN1c1ccc(C#N)c(Cl)c1 (stereo partly shown) [compound 120] | < 0.01 |
| C[C@H]1CC2(CCN(c3ccc(N4CC(N(C)C5CN(c6ccc7c(c6)C(=O)N(C6CCC(=O)NC6=O)C7=O)C5)C4)cc3)CC2)CN1c1ccc(C#N)c(Cl)c1 (stereo partly shown) [compound 121] | < 0.1 |
| C[C@H]1CC2(CCN(c3ccc(N4CCC(N(C)C5CN(c6ccc7c(c6)C(=O)N(C6CCC(=O)NC6=O)C7=O)C5)CC4)cn3)CC2)CN1c1ccc(C#N)c(Cl)c1 (stereo partly shown) [compound 123] | < 0.01 |
| C[C@H]1CC2(CCN(c3ccc(N4CCC(N(C)C5CN(c6ccc7c(c6)C(=O)N(C6CCC(=O)NC6=O)C7=O)C5)CC4)nc3)CC2)CN1c1ccc(C#N)c(Cl)c1 (stereo partly shown) [compound 124] | < 0.1 |
| C[C@H]1CC2(CCN(c3ccc(N4CCC(N(C)C5CN(c6ccc7c(c6)C(=O)N(C6CCC(=O)NC6=O)C7=O)C5)CC4)nn3)CC2)CN1c1ccc(C#N)c(Cl)c1 (stereo partly shown) [compound 125] | < 0.01 |
| C[C@H]1CC2(CCN(c3ccc(OC4CCN(C5CN(c6cc7c(cc6F)C(=O)N(C6CCC(=O)NC6=O)C7=O)C5)CC4)cc3)CC2)CN1c1ccc(C#N)c(Cl)c1 (stereo partly shown) [compound 131] | < 0.01 |
| C[C@H]1CC2(CCN(c3ccc(OC4CCN(C5CN(c6cc7c(cc6F)C(=O)N(C6CCC(=O)NC6=O)C7=O)C5)CC4)cn3)CC2)CN1c1ccc(C#N)c(Cl)c1 (stereo partly shown) [compound 132] | < 0.01 |

Reference: US20240190874A1, “SMALL MOLECULE DEGRADERS OF ANDROGEN RECEPTOR” (THE REGENTS OF THE UNIVERSITY OF MICHIGAN, priority 2021, published 2024)
